From patent US20090104240A1, “Dual Drug Formulations For Implantable Medical Devices For Treatment of Vascular Diseases” (Abbott Cardiovascular Systems Inc., priority 2007, published 2009)

Columns and labels:
inflammation = test: effect of corticosteroid on inflammation; assay type: in vivo; conditions: super high potency corticosteroid
[1] = tested on: vessel endothelialization; test: effect of corticosteroid on vessel endothelialization; assay type: in vivo; conditions: super high potency corticosteroid

Q: For `CC1CC2C3CCC4=CC(=O)C=CC4(C)C3(F)C(=O)CC2(C)C1(O)C(=O)CCl` (centres unmarked) [clobetasone], which “effect with regard to inflammation” value (inflammation) is on record?
A: beneficial effect with regard to inflammation

Q: What about the vessel endothelialization [1] of the same compound?
A: impairment of vessel endothelialization was observed
